# In US9458137B2, “Substituted indol-5-ol derivatives and their therapeutical applications” (NantBioScience, Inc., priority 2012, dated 2016):
# Key:
# Experiment in all cases: Kinase panel activity
# Type in all cases: biochemical
# Settings in all cases: 0.1 μM, ATP Km
# [1] = target: BTK(h) (Homo sapiens, UniProt Q06187)
# Method: (§1) The effect of NTW-3475 on kinase activity was tested for a wide range of kinases and is shown in Table 2: Summary Sheet, Activity % ATP Concentration: Km
# [2] = target: PDGFRβ(h) (Homo sapiens, UniProt P09619)
# Method: as §1
# [3] = target: CaMKIIβ(h) (Homo sapiens, UniProt Q13554)
# Method: as §1
# [4] = target: CK1γ3(h) (Homo sapiens, UniProt Q9Y6M4)
# Method: as §1
# [5] = target: T1, eEF-2K(h) (Homo sapiens, UniProt O00418)
# T1 construct: purchased Millipore (KinaseProfiler service)
# Method: as §1
# [6] = target: T2, Met(Y1248D)(h) (Homo sapiens, UniProt P08581, Y1230D)
# T2 construct: purchased Millipore (KinaseProfiler service)
# Method: as §1
# [7] = target: B1k(h) (Homo sapiens, UniProt P51451)
# Method: as §1
# [8] = target: T3, DRAK1(h) (Homo sapiens, UniProt Q9UEE5)
# T3 construct: purchased Millipore (KinaseProfiler service)
# Method: as §1
# [9] = target: PAR-1Bα(h) (Homo sapiens, UniProt Q7KZI7)
# Method: as §1
# [10] = target: Ab1(h) (Homo sapiens, UniProt P00519)
# Method: as §1
# [11] = target: CHK2(R145W)(h) (Homo sapiens, UniProt O96017, R145W)
# Method: as §1
# [12] = target: ZIPK(h) (Homo sapiens, UniProt O43293)
# Method: as §1
# [13] = target: Ab1(M351T)(h) (Homo sapiens, UniProt P00519, M351T)
# Method: as §1
# [14] = target: T4, Aurora-A(h) (Homo sapiens, UniProt O14965)
# T4 construct: purchased Millipore (KinaseProfiler service)
# Method: as §1
# [15] = target: T5, EphA5(h) (Homo sapiens, UniProt P54756)
# T5 construct: purchased Millipore (KinaseProfiler service)
# Method: as §1
# [16] = target: GRK6(h) (Homo sapiens, UniProt P43250)
# Method: as §1
# [17] = target: IRAK1(h) (Homo sapiens, UniProt P51617)
# Method: as §1
# [18] = target: T6, EGFR(L858R)(h) (Homo sapiens, UniProt P00533, L858R)
# T6 construct: purchased Millipore (KinaseProfiler service)
# Method: as §1
# [19] = target: PKCβ1(h) (Homo sapiens, UniProt P05771)
# Method: as §1
# [20] = target: T7, Met(h) (Homo sapiens, UniProt P08581)
# T7 construct: purchased Millipore (KinaseProfiler service)
# Method: as §1
# [21] = target: BrSK1(h) (Homo sapiens, UniProt Q8TDC3)
# Method: as §1
# [22] = target: T8, EGFR(h) (Homo sapiens, UniProt P00533)
# T8 construct: purchased Millipore (KinaseProfiler service)
# Method: as §1
# [23] = target: NEK11(h) (Homo sapiens, UniProt Q8NG66)
# Method: as §1
# [24] = target: T9, MAPKAP-K3(h) (Homo sapiens, UniProt Q16644)
# T9 construct: purchased Millipore (KinaseProfiler service)
# Method: as §1
# [25] = target: T10, TSSK1(h) (Homo sapiens, UniProt Q9BXA7)
# T10 construct: purchased Millipore (KinaseProfiler service)
# Method: as §1
# [26] = target: HIPK1(h) (Homo sapiens, UniProt Q86Z02)
# Method: as §1
# [27] = target: Fms(Y969C)(h) (Homo sapiens, UniProt P07333, Y969C)
# Method: as §1
# [28] = target: IR(h), activated (Homo sapiens, UniProt P06213)
# Method: as §1
# [29] = target: WNK3(h) (Homo sapiens, UniProt Q9BYP7)
# Method: as §1
# [30] = target: cKit(D816V)(h) (Homo sapiens, UniProt P10721, D816V)
# Method: as §1
# [31] = target: T11, SIK(h) (Homo sapiens, UniProt P57059)
# T11 construct: purchased Millipore (KinaseProfiler service)
# Method: as §1
# [32] = target: PAK5(h) (Homo sapiens, UniProt Q9P286)
# Method: as §1
# [33] = target: T12, TAK1(h) (Homo sapiens, UniProt O43318)
# T12 construct: purchased Millipore (KinaseProfiler service)
# Method: as §1
# [34] = target: DAPK2(h) (Homo sapiens, UniProt Q9UIK4)
# Method: as §1
# [35] = target: PKBγ(h) (Homo sapiens, UniProt Q9Y243)
# Method: as §1
# [36] = target: PDGFRα(h) (Homo sapiens, UniProt P16234)
# Method: as §1
# [37] = target: T13, SAPK4(h) (Homo sapiens, UniProt O15264)
# T13 construct: purchased Millipore (KinaseProfiler service)
# Method: as §1
# [38] = target: T14, SGK(h) (Homo sapiens, UniProt O00141)
# T14 construct: purchased Millipore (KinaseProfiler service)
# Method: as §1
# [39] = target: JAK3(h) (Homo sapiens, UniProt P52333)
# Method: as §1
# PDGFRα(h), sequence (P16234 24-1089): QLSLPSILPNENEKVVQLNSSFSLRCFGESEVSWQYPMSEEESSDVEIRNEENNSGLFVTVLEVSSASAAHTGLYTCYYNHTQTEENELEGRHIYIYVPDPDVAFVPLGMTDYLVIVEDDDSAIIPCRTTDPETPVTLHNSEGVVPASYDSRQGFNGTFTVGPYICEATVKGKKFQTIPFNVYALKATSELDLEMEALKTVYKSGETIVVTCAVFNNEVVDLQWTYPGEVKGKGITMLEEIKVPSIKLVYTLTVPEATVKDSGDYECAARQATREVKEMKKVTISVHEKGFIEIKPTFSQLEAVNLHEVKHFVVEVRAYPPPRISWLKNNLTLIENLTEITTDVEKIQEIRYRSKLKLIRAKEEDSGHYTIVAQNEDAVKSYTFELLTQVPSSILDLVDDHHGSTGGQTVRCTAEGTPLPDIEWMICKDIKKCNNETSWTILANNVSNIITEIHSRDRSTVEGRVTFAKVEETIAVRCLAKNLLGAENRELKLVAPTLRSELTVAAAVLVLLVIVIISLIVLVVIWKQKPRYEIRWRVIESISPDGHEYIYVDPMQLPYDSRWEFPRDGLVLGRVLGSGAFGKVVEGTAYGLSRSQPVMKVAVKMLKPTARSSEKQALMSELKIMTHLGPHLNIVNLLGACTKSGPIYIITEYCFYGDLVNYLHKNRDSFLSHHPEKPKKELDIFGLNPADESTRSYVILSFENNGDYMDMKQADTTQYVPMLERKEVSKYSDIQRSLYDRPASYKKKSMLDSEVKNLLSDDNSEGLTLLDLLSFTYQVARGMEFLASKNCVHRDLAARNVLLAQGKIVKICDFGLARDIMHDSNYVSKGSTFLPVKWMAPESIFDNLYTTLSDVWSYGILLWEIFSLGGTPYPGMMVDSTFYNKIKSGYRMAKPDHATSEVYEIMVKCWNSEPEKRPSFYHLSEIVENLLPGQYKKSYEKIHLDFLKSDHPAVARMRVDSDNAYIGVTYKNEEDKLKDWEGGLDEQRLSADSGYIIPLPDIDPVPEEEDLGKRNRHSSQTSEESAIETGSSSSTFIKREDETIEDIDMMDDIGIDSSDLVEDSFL
# PAK5(h), sequence (Q9P286 whole entry): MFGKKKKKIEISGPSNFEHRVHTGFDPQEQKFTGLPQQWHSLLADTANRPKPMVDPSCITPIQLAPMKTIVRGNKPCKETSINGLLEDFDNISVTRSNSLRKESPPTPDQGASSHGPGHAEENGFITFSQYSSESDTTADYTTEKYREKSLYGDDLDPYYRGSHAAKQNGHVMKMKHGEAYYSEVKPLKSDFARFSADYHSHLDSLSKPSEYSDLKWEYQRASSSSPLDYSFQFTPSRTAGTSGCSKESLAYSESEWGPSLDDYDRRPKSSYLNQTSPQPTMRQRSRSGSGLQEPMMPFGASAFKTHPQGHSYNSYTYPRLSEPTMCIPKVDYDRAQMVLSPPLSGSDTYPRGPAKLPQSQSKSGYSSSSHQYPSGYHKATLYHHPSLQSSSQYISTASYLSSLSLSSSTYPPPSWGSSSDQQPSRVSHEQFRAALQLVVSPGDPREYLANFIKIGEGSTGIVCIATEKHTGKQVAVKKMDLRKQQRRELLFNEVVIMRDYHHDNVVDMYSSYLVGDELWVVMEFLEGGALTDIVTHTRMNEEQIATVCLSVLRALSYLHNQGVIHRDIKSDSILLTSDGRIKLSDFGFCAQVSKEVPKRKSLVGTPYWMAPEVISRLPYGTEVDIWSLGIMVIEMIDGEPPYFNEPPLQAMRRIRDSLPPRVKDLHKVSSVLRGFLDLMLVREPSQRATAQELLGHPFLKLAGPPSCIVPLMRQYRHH
# B1k(h), sequence (P51451 whole entry): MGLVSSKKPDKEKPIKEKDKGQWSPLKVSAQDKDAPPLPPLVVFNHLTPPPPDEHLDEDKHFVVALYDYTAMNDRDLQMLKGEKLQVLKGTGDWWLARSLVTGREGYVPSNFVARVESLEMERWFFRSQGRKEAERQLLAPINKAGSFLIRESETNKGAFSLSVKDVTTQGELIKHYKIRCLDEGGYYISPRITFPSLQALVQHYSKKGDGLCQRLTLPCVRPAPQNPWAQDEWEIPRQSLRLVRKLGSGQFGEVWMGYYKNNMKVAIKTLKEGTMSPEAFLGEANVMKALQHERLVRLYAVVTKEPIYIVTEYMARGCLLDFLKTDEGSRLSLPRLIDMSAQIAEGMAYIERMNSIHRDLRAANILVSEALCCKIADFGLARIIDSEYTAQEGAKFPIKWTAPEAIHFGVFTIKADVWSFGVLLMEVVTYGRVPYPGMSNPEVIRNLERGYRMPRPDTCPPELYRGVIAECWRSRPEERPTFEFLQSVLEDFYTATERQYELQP
# PKCβ1(h), sequence (P05771 whole entry): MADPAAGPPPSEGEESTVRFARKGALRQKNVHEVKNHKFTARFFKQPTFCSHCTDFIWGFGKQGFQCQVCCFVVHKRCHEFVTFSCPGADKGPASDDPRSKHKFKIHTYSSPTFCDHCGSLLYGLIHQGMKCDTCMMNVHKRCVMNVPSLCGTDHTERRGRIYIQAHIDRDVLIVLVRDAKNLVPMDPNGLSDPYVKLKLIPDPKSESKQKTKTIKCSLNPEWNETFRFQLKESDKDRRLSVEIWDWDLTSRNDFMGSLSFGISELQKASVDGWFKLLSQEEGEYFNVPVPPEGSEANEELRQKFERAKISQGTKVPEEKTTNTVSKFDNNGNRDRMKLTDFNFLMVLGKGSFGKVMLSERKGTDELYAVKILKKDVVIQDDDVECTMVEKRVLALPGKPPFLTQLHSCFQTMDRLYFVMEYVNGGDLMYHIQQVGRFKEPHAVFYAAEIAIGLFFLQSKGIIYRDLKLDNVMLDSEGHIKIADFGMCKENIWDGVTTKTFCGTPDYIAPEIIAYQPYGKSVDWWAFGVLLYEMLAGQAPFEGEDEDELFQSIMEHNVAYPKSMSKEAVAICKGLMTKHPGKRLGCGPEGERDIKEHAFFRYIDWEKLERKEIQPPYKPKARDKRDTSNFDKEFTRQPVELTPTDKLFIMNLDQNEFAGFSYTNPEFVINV
# T13 sequence (O15264 whole entry): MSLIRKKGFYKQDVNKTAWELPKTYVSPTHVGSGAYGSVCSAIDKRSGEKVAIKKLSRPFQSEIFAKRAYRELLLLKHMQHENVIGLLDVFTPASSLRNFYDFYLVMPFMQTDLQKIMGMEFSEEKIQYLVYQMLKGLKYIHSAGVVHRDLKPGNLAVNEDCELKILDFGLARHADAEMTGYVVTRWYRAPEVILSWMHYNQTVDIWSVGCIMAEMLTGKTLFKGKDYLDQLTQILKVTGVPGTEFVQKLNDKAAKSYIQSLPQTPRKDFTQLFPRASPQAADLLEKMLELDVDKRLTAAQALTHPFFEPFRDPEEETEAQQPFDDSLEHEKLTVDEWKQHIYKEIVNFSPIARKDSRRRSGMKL
# T9 sequence (Q16644 whole entry): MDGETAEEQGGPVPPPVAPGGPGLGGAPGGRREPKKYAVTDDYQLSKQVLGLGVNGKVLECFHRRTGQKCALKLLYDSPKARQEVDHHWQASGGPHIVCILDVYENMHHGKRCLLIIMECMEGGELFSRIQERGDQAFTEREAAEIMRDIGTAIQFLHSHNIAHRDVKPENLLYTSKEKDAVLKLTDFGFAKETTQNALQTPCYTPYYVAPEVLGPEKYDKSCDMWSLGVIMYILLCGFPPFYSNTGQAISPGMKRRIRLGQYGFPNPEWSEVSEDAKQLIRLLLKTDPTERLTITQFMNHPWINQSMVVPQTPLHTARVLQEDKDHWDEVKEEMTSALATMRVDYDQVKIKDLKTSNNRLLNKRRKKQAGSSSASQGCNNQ
# HIPK1(h), sequence (Q86Z02 whole entry): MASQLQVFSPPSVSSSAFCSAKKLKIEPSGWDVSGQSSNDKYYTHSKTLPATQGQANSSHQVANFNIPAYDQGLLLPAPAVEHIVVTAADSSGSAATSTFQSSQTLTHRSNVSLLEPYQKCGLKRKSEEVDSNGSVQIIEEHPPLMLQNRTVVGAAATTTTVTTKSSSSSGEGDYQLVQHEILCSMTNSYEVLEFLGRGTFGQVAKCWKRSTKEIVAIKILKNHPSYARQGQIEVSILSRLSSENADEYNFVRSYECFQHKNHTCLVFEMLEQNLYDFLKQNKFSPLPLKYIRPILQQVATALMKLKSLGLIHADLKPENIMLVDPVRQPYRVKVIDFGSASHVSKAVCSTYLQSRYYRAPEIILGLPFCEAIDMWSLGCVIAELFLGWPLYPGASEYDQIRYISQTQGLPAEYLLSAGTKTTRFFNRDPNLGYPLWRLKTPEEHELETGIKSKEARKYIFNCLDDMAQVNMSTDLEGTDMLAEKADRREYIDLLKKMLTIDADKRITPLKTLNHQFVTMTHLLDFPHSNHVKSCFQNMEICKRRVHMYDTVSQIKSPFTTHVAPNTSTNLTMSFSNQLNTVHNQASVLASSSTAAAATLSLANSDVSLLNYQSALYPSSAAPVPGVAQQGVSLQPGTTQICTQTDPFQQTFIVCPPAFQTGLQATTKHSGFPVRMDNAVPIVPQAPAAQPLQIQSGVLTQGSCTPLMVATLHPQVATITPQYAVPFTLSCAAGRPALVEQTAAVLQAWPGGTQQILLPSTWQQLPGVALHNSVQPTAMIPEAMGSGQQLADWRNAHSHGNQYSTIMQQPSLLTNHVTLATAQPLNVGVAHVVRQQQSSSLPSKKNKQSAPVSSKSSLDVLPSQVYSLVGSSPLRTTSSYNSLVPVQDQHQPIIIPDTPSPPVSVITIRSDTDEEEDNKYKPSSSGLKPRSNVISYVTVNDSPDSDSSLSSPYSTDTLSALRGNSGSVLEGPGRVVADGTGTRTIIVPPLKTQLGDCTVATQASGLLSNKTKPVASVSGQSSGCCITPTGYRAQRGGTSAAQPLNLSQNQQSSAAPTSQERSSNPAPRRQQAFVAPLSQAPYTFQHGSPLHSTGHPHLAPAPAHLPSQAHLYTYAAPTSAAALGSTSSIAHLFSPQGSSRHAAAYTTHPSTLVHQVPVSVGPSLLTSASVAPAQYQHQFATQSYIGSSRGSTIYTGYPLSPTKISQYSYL
smiles,measurement,setting,value
Cc1cc2c(F)c(Oc3nc(Nc4cc(C5CC5)[nH]n4)cc(N4CCN(C)CC4)n3)cc(F)c2[nH]1 [NTW-3475],Activity %,[1],37%
same,Activity %,[2],89%
same,Activity %,[3],99%
same,Activity %,[4],117%
same,Activity %,[5],86%
same,Activity %,[6],21%
same,Activity %,[7],9%
same,Activity %,[8],51%
same,Activity %,[9],15%
same,Activity %,[10],−9%
same,Activity %,[11],91%
same,Activity %,[12],104%
same,Activity %,[13],−2%
same,Activity %,[14],7%
same,Activity %,[15],122%
same,Activity %,[16],69%
same,Activity %,[17],96%
same,Activity %,[18],72%
same,Activity %,[19],92%
same,Activity %,[20],11%
same,Activity %,[21],53%
same,Activity %,[22],108%
same,Activity %,[23],102%
same,Activity %,[24],103%
same,Activity %,[25],86%
same,Activity %,[26],91%
same,Activity %,[27],4%
same,Activity %,[28],13%
same,Activity %,[29],86%
same,Activity %,[30],63%
same,Activity %,[31],33%
same,Activity %,[32],29%
same,Activity %,[33],65%
same,Activity %,[34],106%
same,Activity %,[35],106%
same,Activity %,[36],67%
same,Activity %,[37],91%
same,Activity %,[38],107%
same,Activity %,[39],3%
